# Data from patent publication US20240285634A1, “COMPOUND AND METHOD FOR TREATING CHEMOTHERAPY-ASSOCIATED GASTROINTESTINAL SIDE EFFECTS” (ONQUALITY PHARMACEUTICALS CHINA LTD., priority 2021, published 2024).
# System: Chemotherapeutic agent-caused diarrhea models of Balb/c mice
# Experiment: Relieving effect on diarrhea caused by a chemotherapeutic agent (Examples 1-201)
# Format: in vivo
# Description: Construction of mouse animal models: Chemotherapeutic agent-caused diarrhea models of Balb/c mice were constructed according to the administration mode and frequency of the chemotherapeutic agent as shown in Table 3. After administration for several days, mice developed different extents of diarrhea symptoms (as shown in FIG. 1), which were similar to the conditions in human. Thus, chemotherapeutic agent-caused diarrhea models of mice are very good models to mimic diarrhea in human caused by the chemotherapeutic agent.
# Balb/c mice were fed for 1 week, and then divided into groups. The experiment was divided into a control group, a chemotherapeutic agent group, and a group of the compound as shown in Formula I, each of which comprised 10 mice, to perform the administration experiment, for which the administration dosage, mode, time and frequency were shown in Table 3. The control group: being injected or intragastrically administered with the same solvent as that used in the group of the compound as shown in Formula I (the injection mode and time were shown in Table 3), and then being injected or intragastrically administered with the same solvent as that used in the chemotherapeutic agent group (the administration mode was shown in Table 3); the chemotherapeutic agent group: being injected or intragastrically administered with the same solvent as that used in the group of the compound as shown in Formula I (the administration mode and time were shown in Table 3), and then being injected or intragastrically administered with the chemotherapeutic agent (the type, administration mode and dosage were shown in Table 3); the group of the compound as shown in Formula I: being injected or intragastrically administered with the compound as shown in Formula I (the administration mode and time were shown in Table 3), and then being administered with the chemotherapeutic agent (the administration mode and dosage were shown in Table 3).
# The scoring of diarrhea can refer to the method of Akinobu Kurita (Cancer Chemother Pharmacol 2000; 46:211-20.), Grade 0: normal feces; Grade 1: mild diarrhea, the stools is slightly wet and soft; Grade 2: moderate diarrhea, loose stools and mild perianal contamination; Grade 3: severe diarrhea, watery stools and accompanied by severe perianal staining (see FIG. 1). It is regarded as effective remission when the diarrhea grading of mice in the group of the compound as shown in Formula I is reduced compared with the average diarrhea grading of mice in the chemotherapeutic agent group.
# The diarrhea grading of mice was observed and recorded every day. At the end of the experiment, the number of mice in the group of the compound as shown in Formula I whose diarrhea grading was lower than that of mice in the chemotherapeutic agent group was recorded. Table 3 lists various animal experiment combinations of chemotherapeutic agents and the compound as shown in Formula I, as well as the corresponding experimental results. (Relative remission rate %=the number of mice in the group of the compound as shown in Formula I whose diarrhea has been effectively relieved/the total number of mice in the group of the compound as shown in Formula I*100%. The establishment rate of diarrhea model in the chemotherapeutic agent group was 50%-70%, that is, about 5-7 of 10 mice developed diarrhea during the experiment, and there were cases of individual mice death or not developing diarrhea.)
structure (smiles),measurement,setting,value
"CN1CCN(c2ccc(Nc3ncc4cc5n(c4n3)C3(CCCCC3)CNC5=O)nc2)CC1 [Compound I, Trilaciclib]",Relative remission rate,"Ex 1, 5-Fu 125 mg/kg intraperitoneal single, compound 100 mg/kg intravenous single 0.5 h before, cycle 10 days",70%
same,Relative remission rate,"Ex 2, 5-Fu 125 mg/kg intraperitoneal single, compound 100 mg/kg intravenous single 1 h before, cycle 10 days",70%
same,Relative remission rate,"Ex 3, 5-Fu 125 mg/kg intraperitoneal single, compound 100 mg/kg intravenous single 2 h before, cycle 10 days",60%
same,Relative remission rate,"Ex 4, 5-Fu 125 mg/kg intraperitoneal single, compound 100 mg/kg intravenous single 3 h before, cycle 10 days",60%
same,Relative remission rate,"Ex 5, 5-Fu 125 mg/kg intraperitoneal single, compound 100 mg/kg intravenous single 4 h before, cycle 10 days",60%
same,Relative remission rate,"Ex 6, 5-Fu 125 mg/kg intraperitoneal single, compound 100 mg/kg intravenous single 5 h before, cycle 10 days",40%
same,Relative remission rate,"Ex 7, 5-Fu 125 mg/kg intraperitoneal single, compound 100 mg/kg intravenous single 6 h before, cycle 10 days",40%
same,Relative remission rate,"Ex 8, 5-Fu 125 mg/kg intraperitoneal single, compound 100 mg/kg intravenous single 7 h before, cycle 10 days",40%
same,Relative remission rate,"Ex 9, 5-Fu 125 mg/kg intraperitoneal single, compound 100 mg/kg intravenous single 8 h before, cycle 10 days",50%
same,Relative remission rate,"Ex 10, 5-Fu 125 mg/kg intraperitoneal single, compound 100 mg/kg intravenous single 9 h before, cycle 10 days",40%
same,Relative remission rate,"Ex 11, 5-Fu 125 mg/kg intraperitoneal single, compound 100 mg/kg intravenous single 10 h before, cycle 10 days",50%
same,Relative remission rate,"Ex 12, 5-Fu 125 mg/kg intraperitoneal single, compound 100 mg/kg intravenous single 11 h before, cycle 10 days",40%
same,Relative remission rate,"Ex 13, 5-Fu 125 mg/kg intraperitoneal single, compound 12.5 mg/kg intravenous single 12 h before, cycle 10 days",30%
same,Relative remission rate,"Ex 14, 5-Fu 125 mg/kg intraperitoneal single, compound 25 mg/kg intravenous single 12 h before, cycle 10 days",40%
same,Relative remission rate,"Ex 15, 5-Fu 125 mg/kg intraperitoneal single, compound 50 mg/kg intravenous single 12 h before, cycle 10 days",60%
same,Relative remission rate,"Ex 16, 5-Fu 125 mg/kg intraperitoneal single, compound 100 mg/kg intravenous single 12 h before, cycle 10 days",70%
same,Relative remission rate,"Ex 17, 5-Fu 125 mg/kg intraperitoneal single, compound 150 mg/kg intravenous single 12 h before, cycle 10 days",50%
same,Relative remission rate,"Ex 18, 5-Fu 125 mg/kg intraperitoneal single, compound 240 mg/kg intravenous single 12 h before, cycle 10 days",50%
same,Relative remission rate,"Ex 86, Oxaliplatin 17.5 mg/kg intravenous single, compound 150 mg/kg intravenous single 20 h before, cycle 8 days",40%
same,Relative remission rate,"Ex 87, Oxaliplatin 17.5 mg/kg intravenous single, compound 150 mg/kg intravenous single 24 h before, cycle 8 days",50%
same,Relative remission rate,"Ex 88, Oxaliplatin 17.5 mg/kg intravenous single, compound 150 mg/kg intravenous single 48 h before, cycle 8 days",0%
same,Relative remission rate,"Ex 92, Irinotecan (CPT-11) 240 mg/kg intraperitoneal single, compound 100 mg/kg intravenous single 0.5 h before, cycle 7 days",50%
same,Relative remission rate,"Ex 93, Irinotecan (CPT-11) 240 mg/kg intraperitoneal single, compound 100 mg/kg intravenous single 1 h before, cycle 7 days",50%
same,Relative remission rate,"Ex 94, Irinotecan (CPT-11) 240 mg/kg intraperitoneal single, compound 100 mg/kg intravenous single 2 h before, cycle 7 days",50%
same,Relative remission rate,"Ex 95, Irinotecan (CPT-11) 240 mg/kg intraperitoneal single, compound 100 mg/kg intravenous single 3 h before, cycle 7 days",40%
same,Relative remission rate,"Ex 96, Irinotecan (CPT-11) 240 mg/kg intraperitoneal single, compound 100 mg/kg intravenous single 4 h before, cycle 7 days",50%
same,Relative remission rate,"Ex 97, Irinotecan (CPT-11) 240 mg/kg intraperitoneal single, compound 100 mg/kg intravenous single 5 h before, cycle 7 days",40%
same,Relative remission rate,"Ex 98, Irinotecan (CPT-11) 240 mg/kg intraperitoneal single, compound 100 mg/kg intravenous single 6 h before, cycle 7 days",40%
same,Relative remission rate,"Ex 99, Irinotecan (CPT-11) 240 mg/kg intraperitoneal single, compound 100 mg/kg intravenous single 7 h before, cycle 7 days",70%
same,Relative remission rate,"Ex 100, Irinotecan (CPT-11) 240 mg/kg intraperitoneal single, compound 100 mg/kg intravenous single 8 h before, cycle 7 days",70%
same,Relative remission rate,"Ex 101, Irinotecan (CPT-11) 240 mg/kg intraperitoneal single, compound 100 mg/kg intravenous single 9 h before, cycle 7 days",60%
same,Relative remission rate,"Ex 102, Irinotecan (CPT-11) 240 mg/kg intraperitoneal single, compound 100 mg/kg intravenous single 10 h before, cycle 7 days",40%
same,Relative remission rate,"Ex 103, Irinotecan (CPT-11) 240 mg/kg intraperitoneal single, compound 100 mg/kg intravenous single 11 h before, cycle 7 days",60%
same,Relative remission rate,"Ex 104, Irinotecan (CPT-11) 240 mg/kg intraperitoneal single, compound 100 mg/kg intravenous single 12 h before, cycle 7 days",60%
same,Relative remission rate,"Ex 105, Irinotecan (CPT-11) 240 mg/kg intraperitoneal single, compound 100 mg/kg intravenous single 14 h before, cycle 7 days",50%
same,Relative remission rate,"Ex 106, Irinotecan (CPT-11) 240 mg/kg intraperitoneal single, compound 100 mg/kg intravenous single 16 h before, cycle 7 days",70%
same,Relative remission rate,"Ex 107, Irinotecan (CPT-11) 240 mg/kg intraperitoneal single, compound 100 mg/kg intravenous single 18 h before, cycle 7 days",70%
same,Relative remission rate,"Ex 108, Irinotecan (CPT-11) 240 mg/kg intraperitoneal single, compound 100 mg/kg intravenous single 20 h before, cycle 7 days",40%
same,Relative remission rate,"Ex 109, Irinotecan (CPT-11) 240 mg/kg intraperitoneal single, compound 100 mg/kg intravenous single 22 h before, cycle 7 days",40%
same,Relative remission rate,"Ex 110, Irinotecan (CPT-11) 240 mg/kg intraperitoneal single, compound 100 mg/kg intravenous single 24 h before, cycle 7 days",30%
same,Relative remission rate,"Ex 111, Irinotecan (CPT-11) 240 mg/kg intraperitoneal single, compound 100 mg/kg intravenous single 48 h before, cycle 7 days",0%
same,Relative remission rate,"Ex 118, Irinotecan (CPT-11) 300 mg/kg oral single, compound 100 mg/kg intraperitoneal single 12 h before, cycle 11 days",50%
same,Relative remission rate,"Ex 119, Irinotecan (CPT-11) 250 mg/kg intramuscular single, compound 100 mg/kg intramuscular single 1 h before, cycle 7 days",70%
same,Relative remission rate,"Ex 120, Irinotecan (CPT-11) 200 mg/kg intravenous single, compound 100 mg/kg intravenous single 0. h before, cycle 7 days",70%
same,Relative remission rate,"Ex 121, Fluorouracil 100 + irinotecan 200 mg/kg intravenous single, compound 100 mg/kg intravenous single 0.5 h before, cycle 10 days",70%
same,Relative remission rate,"Ex 122, Fluorouracil 100 + irinotecan 200 mg/kg intravenous single, compound 100 mg/kg intravenous single 4 h before, cycle 10 days",40%
same,Relative remission rate,"Ex 123, Fluorouracil 100 + irinotecan 200 mg/kg intravenous single, compound 100 mg/kg intravenous single 8 h before, cycle 10 days",50%
same,Relative remission rate,"Ex 124, Fluorouracil 100 + irinotecan 200 mg/kg intravenous single, compound 100 mg/kg intravenous single 12 h before, cycle 10 days",50%
same,Relative remission rate,"Ex 125, Fluorouracil 100 + irinotecan 200 mg/kg intravenous single, compound 100 mg/kg intravenous single 24 h before, cycle 10 days",30%
same,Relative remission rate,"Ex 126, Fluorouracil 100 + irinotecan 200 mg/kg intravenous single, compound 100 mg/kg intravenous single 48 h before, cycle 10 days",0%
same,Relative remission rate,"Ex 127, Fluorouracil 100 + irinotecan 200 mg/kg intraperitoneal single, compound 100 mg/kg intraperitoneal single 1 h before, cycle 8 days",40%
same,Relative remission rate,"Ex 128, Fluorouracil 100 + irinotecan 200 mg/kg intraperitoneal single, compound 100 mg/kg intraperitoneal single 12 h before, cycle 8 days",30%
same,Relative remission rate,"Ex 129, Fluorouracil 100 + irinotecan 200 mg/kg intraperitoneal single, compound 150 mg/kg oral single 0.5 h before, cycle 8 days",40%
same,Relative remission rate,"Ex 130, Fluorouracil 100 + irinotecan 200 mg/kg intraperitoneal single, compound 150 mg/kg oral single 12 h before, cycle 8 days",40%
